System: not listed separately
Experiment: PK protocol (intravenous and oral administration)
Type: in vivo, male Sprague Dawley rats
Conditions: male, Sprague Dawley, plasma; rat, intravenous, dose 1 mg/kg
Description: Pharmacokinetic parameters were determined in male Sprague Dawley rats (Charles River, UK, 250-350 g; or Vital River Laboratory Animal Technology Co Ltd, Beijing, China, 7-9 weeks old). Animals were individually housed during the study and maintained under a 12 h light/dark cycle. Animals had free access to food and water except that some orally dosed animals were food deprived overnight prior to the study. For intravenous administration, compounds were formulated as a solution in water or DMSO:PBS [10:90] in 2 mL/kg dosing volume and administered via tail vein. For oral administration, compounds were formulated as a solution in water or DMSO:water [10:90] in 5 mL/kg dosing volume and administered orally.
Serial blood samples (about 120-300 μL) were taken from each animal at each of 8 time-points post dose (0.083, 0.25, 0.5, 1, 2, 4, 8 and 24 h) or at each of 12 time-points post dose (0.03, 0.1, 0.17, 0.25, 0.5, 1, 2, 4, 6, 8, 12 and 24 h) or pre-dose and at each of 9 time-points post dose (0.25, 0.5, 1, 2, 4, 6, 8, 12 and 24 h). Samples were held on ice for no longer than 30 minutes before centrifugation (10,000 rpm (8,385 g) for 3 minutes; or 5,696 rpm (3,000 g) for 15 minutes) for plasma generation. Plasma was frozen on dry ice prior to bioanalysis. PK parameters were generated from LC-MS/MS data using Dotmatics or Phoenix WinNonlin 6.3 software.

AUC [ng·h/mL]	clearance [mL/min/kg]	half-life [h]	Structure (SMILES)
2070	8.1	14.2	CN(CCO)Cc1cc(S(=O)(=O)NC(=O)Nc2c3c(cc4c2CCC4)CCC3)nn1C [Example 77, N-((1,2,3,5,6,7-Hexahydro-s-indacen-4-yl)carbamoyl)-5-(((2-hydroxyethyl)(methyl)amino)methyl)-1-methyl-1H-pyrazole-3-sulfonamide]
611	27.8	1.2	CC(C)(O)c1coc(S(=O)(=O)NC(=O)Nc2c3c(cc4c2CCC4)CCC3)c1 [MCC950, reference compound]

Same assay, conditions: male, Sprague Dawley, plasma; rat, intravenous, dose 1 mg/kg; read-out: Vdss

Vd [L/kg]	Structure (SMILES)
1.9	CN(CCO)Cc1cc(S(=O)(=O)NC(=O)Nc2c3c(cc4c2CCC4)CCC3)nn1C [Example 77, N-((1,2,3,5,6,7-Hexahydro-s-indacen-4-yl)carbamoyl)-5-(((2-hydroxyethyl)(methyl)amino)methyl)-1-methyl-1H-pyrazole-3-sulfonamide]
0.53	CC(C)(O)c1coc(S(=O)(=O)NC(=O)Nc2c3c(cc4c2CCC4)CCC3)c1 [MCC950, reference compound]

Same assay, conditions: male, Sprague Dawley, plasma; rat, intravenous, dose 2.41 mg/kg

AUC [ng·h/mL]	clearance [mL/min/kg]	half-life [h]	Structure (SMILES)
787	114	0.3	CN(CCO)C(=O)c1cc(S(=O)(=O)NC(=O)Nc2c3c(cc4c2CCC4)CCC3)nn1C [Example 59, 3-(N-((1,2,3,5,6,7-Hexahydro-s-indacen-4-yl)carbamoyl)sulfamoyl)-N-(2-hydroxyethyl)-N,1-dimethyl-1H-pyrazole-5-carboxamide]

Same assay, conditions: male, Sprague Dawley, plasma; rat, intravenous, dose 2.41 mg/kg; read-out: Vdss

Vd [L/kg]	Structure (SMILES)
2.37	CN(CCO)C(=O)c1cc(S(=O)(=O)NC(=O)Nc2c3c(cc4c2CCC4)CCC3)nn1C [Example 59, 3-(N-((1,2,3,5,6,7-Hexahydro-s-indacen-4-yl)carbamoyl)sulfamoyl)-N-(2-hydroxyethyl)-N,1-dimethyl-1H-pyrazole-5-carboxamide]

Target: NLRP3 (Homo sapiens, UniProt Q96P20)
Experiment: THP-1 cells pyroptosis assay
Type: cell-based
Set-up: Seed THP-1 cells (25,000 cells/well) containing 1.0 μg/ml LPS; host or cells: THP-1 cells, LPS-primed, nigericin-stimulated
Conditions: LPS 1 μg/ml, nigericin 5 μM, resazurin read-out
Description: THP-1 cells (ATCC #TIB-202) were grown in RPMI containing L-glutamine (Gibco #11835) supplemented with 1 mM sodium pyruvate (Sigma #S8636) and penicillin (100 units/ml)/streptomycin (0.1 mg/ml) (Sigma #P4333) in 10% Fetal Bovine Serum (FBS) (Sigma #F0804). The cells were routinely passaged and grown to confluency (˜10^6 cells/ml). On the day of the experiment, THP-1 cells were harvested and resuspended into RPMI medium (without FBS). The cells were then counted and viability (>90%) checked by Trypan blue (Sigma #T8154). Appropriate dilutions were made to give a concentration of 625,000 cells/ml. To this diluted cell solution was added LPS (Sigma #L4524) to give a 1 μg/ml Final Assay Concentration (FAC). 40 μl of the final preparation was aliquoted into each well of a 96-well plate. The plate thus prepared was used for compound screening.
The following method step-by-step assay was followed for compound screening. • 1. Seed THP-1 cells (25,000 cells/well) containing 1.0 μg/ml LPS in 40 μl of RPMI medium (without FBS) in 96-well, black walled, clear bottom cell culture plates coated with poly-D-lysine (VWR #734-0317) • 2. Add 5 μl compound (8 points half-log dilution, with 10 μM top dose) or vehicle (DMSO 0.1% FAC) to the appropriate wells • 3. Incubate for 3 hrs at 37° C. and 5% CO2 • 4. Add 5 μl nigericin (Sigma #N7143) (FAC 5 μM) to all wells • 5. Incubate for 1 hr at 37° C. and 5% CO2 • 6. At the end of the incubation period, spin plates at 300×g for 3 mins and remove supernatant • 7. Then add 50 μl of resazurin (Sigma #R7017) (FAC 100 μM resazurin in RPMI medium without FBS) and incubate plates for a further 1-2 hrs at 37° C. and 5% CO2 • 8. Plates were read in an Envision reader at Ex 560 nm and Em 590 nm • 9. IC50 data is fitted to a non-linear regression equation (log inhibitor vs response-variable slope 4-parameters) 96-Well Plate Map

Sequence of NLRP3 (Q96P20 whole entry): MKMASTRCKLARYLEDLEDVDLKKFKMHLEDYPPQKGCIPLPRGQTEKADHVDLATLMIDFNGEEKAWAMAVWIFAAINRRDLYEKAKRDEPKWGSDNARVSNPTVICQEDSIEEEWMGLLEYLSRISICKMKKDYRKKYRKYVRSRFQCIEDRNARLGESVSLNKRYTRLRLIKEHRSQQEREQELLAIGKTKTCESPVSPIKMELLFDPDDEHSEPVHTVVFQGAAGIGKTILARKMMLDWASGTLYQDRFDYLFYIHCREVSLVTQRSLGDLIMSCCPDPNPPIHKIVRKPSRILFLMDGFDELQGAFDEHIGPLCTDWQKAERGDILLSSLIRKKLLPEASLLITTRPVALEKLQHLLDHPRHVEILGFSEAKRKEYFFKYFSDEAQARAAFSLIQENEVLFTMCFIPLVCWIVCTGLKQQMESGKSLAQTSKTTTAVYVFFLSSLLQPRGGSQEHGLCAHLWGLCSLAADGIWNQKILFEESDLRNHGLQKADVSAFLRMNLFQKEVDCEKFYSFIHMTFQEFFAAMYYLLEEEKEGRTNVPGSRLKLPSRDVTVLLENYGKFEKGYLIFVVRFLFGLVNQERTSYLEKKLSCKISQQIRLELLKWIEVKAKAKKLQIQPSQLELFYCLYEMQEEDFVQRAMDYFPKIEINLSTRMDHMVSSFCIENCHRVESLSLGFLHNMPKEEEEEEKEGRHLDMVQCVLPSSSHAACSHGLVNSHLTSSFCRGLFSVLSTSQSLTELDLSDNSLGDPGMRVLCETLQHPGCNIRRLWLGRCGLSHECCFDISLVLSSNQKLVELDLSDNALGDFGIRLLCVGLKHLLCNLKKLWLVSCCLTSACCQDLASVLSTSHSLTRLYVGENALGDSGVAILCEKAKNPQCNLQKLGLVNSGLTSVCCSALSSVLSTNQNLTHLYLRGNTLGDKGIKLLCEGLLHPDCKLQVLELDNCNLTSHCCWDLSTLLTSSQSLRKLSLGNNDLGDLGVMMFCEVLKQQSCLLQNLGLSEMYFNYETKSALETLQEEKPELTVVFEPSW

IC50 [nM]	Structure (SMILES)
2560 to 10000	CN(C(=O)c1cc(S(=O)(=O)NC(=O)Nc2c3c(cc4c2CCC4)CCC3)nn1C)C1CCOCC1 [Example 60, 3-(N-((1,2,3,5,6,7-Hexahydro-s-indacen-4-yl)carbamoyl)sulfamoyl)-N,1-dimethyl-N-(tetrahydro-2H-pyran-4-yl)-1H-pyrazole-5-carboxamide]
40 to 160	CN(CCO)C(=O)c1cc(S(=O)(=O)NC(=O)Nc2c3c(cc4c2CCC4)CCC3)nn1C [Example 59, 3-(N-((1,2,3,5,6,7-Hexahydro-s-indacen-4-yl)carbamoyl)sulfamoyl)-N-(2-hydroxyethyl)-N,1-dimethyl-1H-pyrazole-5-carboxamide]
2560 to 10000	Cn1nc(S(=O)(=O)NC(=O)Nc2c3c(cc4c2CCC4)CCC3)cc1C(=O)N1CCC(O)CC1 [Example 70, N-((1,2,3,5,6,7-Hexahydro-s-indacen-4-yl)carbamoyl)-5-(4-hydroxypiperidine-1-carbonyl)-1-methyl-1H-pyrazole-3-sulfonamide]
640 to 2560	C[C@@H](O)Cn1cc(S(=O)(=O)NC(=O)Nc2c3c(cc4c2CCC4)CCC3)cn1 [Example 89, (R)—N-((1,2,3,5,6,7-Hexahydro-s-indacen-4-yl)carbamoyl)-1-(2-hydroxypropyl)-1H-pyrazole-4-sulfonamide]
2560 to 10000	COCCNC(=O)c1cc(S(=O)(=O)NC(=O)Nc2c3c(cc4c2CCC4)CCC3)nn1C [Example 85, 3-(N-((1,2,3,5,6,7-Hexahydro-s-indacen-4-yl)carbamoyl)sulfamoyl)-N-(2-methoxyethyl)-1-methyl-1H-pyrazole-5-carboxamide]
640 to 2560	CC(C)c1cc(F)cc(C(C)C)c1NC(=O)NS(=O)(=O)c1ccn(C[C@@H](C)O)n1 [Example 27, (R)—N-((4-Fluoro-2,6-diisopropylphenyl)carbamoyl)-1-(2-hydroxypropyl)-1H-pyrazole-3-sulfonamide]
2560 to 10000	Cn1nc(S(=O)(=O)NC(=O)Nc2c3c(cc4c2CCC4)CCC3)cc1C(=O)NCCO [Example 84, 3-(N-((1,2,3,5,6,7-Hexahydro-s-indacen-4-yl)carbamoyl)sulfamoyl)-N-(2-hydroxyethyl)-1-methyl-1H-pyrazole-5-carboxamide]
640 to 2560	COCCn1cc(S(=O)(=O)NC(=O)Nc2c3c(cc4c2CCC4)CCC3)cn1 [Example 101]
2560 to 10000	COCCN(C)C(=O)c1cc(S(=O)(=O)NC(=O)Nc2c(C(C)C)cccc2C(C)C)nn1C [Example 68, 3-(N-((2,6-Diisopropylphenyl)carbamoyl)sulfamoyl)-N-(2-methoxyethyl)-N,1-dimethyl-1H-pyrazole-5-carboxamide]
640 to 2560	CC(C)c1cccc(C(C)C)c1NC(=O)NS(=O)(=O)c1cc(C(=O)N(C)CCO)n(C)n1 [Example 83, 3-(N-((2,6-Diisopropylphenyl)carbamoyl)sulfamoyl)-N-(2-hydroxyethyl)-N,1-dimethyl-1H-pyrazole-5-carboxamide]
160 to 640	O=C(Nc1c2c(cc3c1CCC3)CCC2)NS(=O)(=O)c1ccn(C2COCC2O)n1 (stereo not drawn) [Example 105]
640 to 2560	CC(C)c1cc(F)cc(C(C)C)c1NC(=O)NS(=O)(=O)c1cc(C2(O)CCOCC2)n(C)n1 [Example 54, N-((4-Fluoro-2,6-diisopropylphenyl)carbamoyl)-5-(4-hydroxytetrahydro-2H-pyran-4-yl)-1-methyl-1H-pyrazole-3-sulfonamide]
2560 to 10000	COCCN(CCOC)C(=O)c1cc(S(=O)(=O)NC(=O)Nc2c(C(C)C)cccc2C(C)C)nn1C [Example 69, 3-(N-((2,6-Diisopropylphenyl)carbamoyl)sulfamoyl)-N,N-bis(2-methoxyethyl)-1-methyl-1H-pyrazole-5-carboxamide]
640 to 2560	CC(C)c1cc(F)cc(C(C)C)c1NC(=O)NS(=O)(=O)c1cc(C2(O)COC2)n(C(C)C)n1 [Example 43, N-((4-Fluoro-2,6-diisopropylphenyl)carbamoyl)-5-(3-hydroxyoxetan-3-yl)-1-isopropyl-1H-pyrazole-3-sulfonamide]
640 to 2560	O=C(Nc1c2c(cc3c1CCC3)CCC2)NS(=O)(=O)c1cnn(C2CCOC2)c1 (stereo not drawn) [Example 100]
160 to 640	COC1(c2cc(S(=O)(=O)NC(=O)Nc3c(C(C)C)cc(F)cc3C(C)C)nn2C)COC1 [Example 52, N-((4-Fluoro-2,6-diisopropylphenyl)carbamoyl)-5-(3-methoxyoxetan-3-yl)-1-methyl-1H-pyrazole-3-sulfonamide]
160 to 640	CCn1nc(S(=O)(=O)NC(=O)Nc2c(C(C)C)cc(F)cc2C(C)C)cc1C1(O)COC1 [Example 44, 1-Ethyl-N-((4-fluoro-2,6-diisopropylphenyl)carbamoyl)-5-(3-hydroxyoxetan-3-yl)-1H-pyrazole-3-sulfonamide]
640 to 2560	Cn1nc(S(=O)(=O)NC(=O)Nc2c3c(cc4c2CCC4)CCC3)cc1C(=O)N1CCOCC1 [Example 74, N-((1,2,3,5,6,7-Hexahydro-s-indacen-4-yl)carbamoyl)-1-methyl-5-(morpholine-4-carbonyl)-1H-pyrazole-3-sulfonamide]
640 to 2560	CN(C(=O)c1cc(S(=O)(=O)NC(=O)Nc2c3c(cc4c2CCC4)CCC3)nn1C)C1COC1 [Example 63, 3-(N-((1,2,3,5,6,7-Hexahydro-s-indacen-4-yl)carbamoyl)sulfamoyl)-N,1-dimethyl-N-(oxetan-3-yl)-1H-pyrazole-5-carboxamide]
2560 to 10000	O=C(Nc1c2c(cc3c1CCC3)CCC2)NS(=O)(=O)c1cnn(C2CCOCC2)c1 [Example 99]
640 to 2560	CN(CC(O)CO)C(=O)c1cc(S(=O)(=O)NC(=O)Nc2c3c(cc4c2CCC4)CCC3)nn1C (stereo not drawn) [Example 65, N-(2,3-Dihydroxypropyl)-3-(N-((1,2,3,5,6,7-hexahydro-s-indacen-4-yl)carbamoyl)sulfamoyl)-N,1-dimethyl-1H-pyrazole-5-carboxamide]
640 to 2560	CC(C)c1cccc(C(C)C)c1NC(=O)NS(=O)(=O)c1cc(C(=O)N2CCOCC2)n(C)n1 [Example 67, N-((2,6-Diisopropylphenyl)carbamoyl)-1-methyl-5-(morpholine-4-carbonyl)-1H-pyrazole-3-sulfonamide]
640 to 2560	CC(C)(O)Cn1cc(S(=O)(=O)NC(=O)Nc2c3c(cc4c2CCC4)CCC3)cn1 [Example 88, N-((1,2,3,5,6,7-Hexahydro-s-indacen-4-yl)carbamoyl)-1-(2-hydroxy-2-methylpropyl)-1H-pyrazole-4-sulfonamide]
2560 to 10000	COC1CCN(C(=O)c2cc(S(=O)(=O)NC(=O)Nc3c4c(cc5c3CCC5)CCC4)nn2C)C1 (stereo not drawn) [Example 71, N-((1,2,3,5,6,7-Hexahydro-s-indacen-4-yl)carbamoyl)-5-(3-methoxypyrrolidine-1-carbonyl)-1-methyl-1H-pyrazole-3-sulfonamide]

Source: patent US12012392B2, “Sulfonamide carboxamide compounds” (Inflazome Limited, priority 2017, dated 2024)
